Patent publication US20110009381A1, “SOLUBILIZED THIAZOLOPYRIDINES” (Sirtis Pharmaceuticals, Inc., priority 2007, published 2011)

Biological target: T1, SIRT1 (Homo sapiens, UniProt Q96EB6)
T1 sequence (Q96EB6 1-747): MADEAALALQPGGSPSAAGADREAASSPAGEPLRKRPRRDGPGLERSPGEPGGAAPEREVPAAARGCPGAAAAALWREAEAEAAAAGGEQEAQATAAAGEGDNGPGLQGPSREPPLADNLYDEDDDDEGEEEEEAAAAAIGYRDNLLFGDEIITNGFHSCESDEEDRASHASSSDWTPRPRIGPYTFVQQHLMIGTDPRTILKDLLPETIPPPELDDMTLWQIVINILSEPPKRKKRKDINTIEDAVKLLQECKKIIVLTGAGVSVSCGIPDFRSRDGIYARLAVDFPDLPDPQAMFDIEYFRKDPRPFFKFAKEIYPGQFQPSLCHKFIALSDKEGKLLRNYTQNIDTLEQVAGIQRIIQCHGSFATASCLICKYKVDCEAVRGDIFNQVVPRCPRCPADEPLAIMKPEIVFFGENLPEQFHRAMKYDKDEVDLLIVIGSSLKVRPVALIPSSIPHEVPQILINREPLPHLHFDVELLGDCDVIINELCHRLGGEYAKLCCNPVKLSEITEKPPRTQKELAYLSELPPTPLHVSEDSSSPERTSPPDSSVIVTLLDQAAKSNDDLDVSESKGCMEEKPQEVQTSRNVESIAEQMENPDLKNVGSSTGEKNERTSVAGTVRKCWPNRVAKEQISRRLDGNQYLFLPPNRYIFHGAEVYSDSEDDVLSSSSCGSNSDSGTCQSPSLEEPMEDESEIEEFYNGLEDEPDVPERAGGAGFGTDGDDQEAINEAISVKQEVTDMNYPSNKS
Assay: Mass spectrometry based assay to identify modulators of SIRT1 activity (deacetylation of p53-based acetylated peptide substrate)
Format: biochemical
Settings: 10 nM SIRT1, 0.5 μM peptide substrate, 120 μM βNAD+, 25 minutes at 25° C.; for EC1.5: SIRT1 activation
Description: A mass spectrometry based assay was used to identify modulators of SIRT1 activity. The mass spectrometry based assay utilizes a peptide having 20 amino acid residues as follows: Ac-EE-K(biotin)-GQSTSSHSK(Ac)NleSTEG-K(5TMR)-EE-NH2 (SEQ ID NO: 1) wherein K(Ac) is an acetylated lysine residue and Nle is a norleucine. The peptide is labeled with the fluorophore 5TMR (excitation 540 nm/emission 580 nm) at the C-terminus. The sequence of the peptide substrate is based on p53 with several modifications. In addition, the methionine residue naturally present in the sequence was replaced with the norleucine because the methionine may be susceptible to oxidation during synthesis and purification.
The mass spectrometry assay is conducted as follows: 0.5 μM peptide substrate and 120 μM βNAD^+ is incubated with 10 nM SIRT1 for 25 minutes at 25° C. in a reaction buffer (50 mM Tris-acetate pH 8, 137 mM NaCl, 2.7 mM KCl, 1 mM MgCl2, 5 mM DTT, 0.05% BSA). Test compounds may be added to the reaction as described above. The SirT1 gene is cloned into a T7-promoter containing vector and transformed into BL21(DE3). After the 25 minute incubation with SIRT1, 10 μL of 10% formic acid is added to stop the reaction. Reactions are sealed and frozen for later mass spec analysis. Determination of the mass of the substrate peptide allows for precise determination of the degree of acetylation (i.e. starting material) as compared to deacetylated peptide (product).
A control for inhibition of sirtuin activity is conducted by adding 1 μL of 500 mM nicotinamide as a negative control at the start of the reaction (e.g., permits determination of maximum sirtuin inhibition). A control for activation of sirtuin activity is conducted using 10 nM of sirtuin protein, with 1 μL of DMSO in place of compound, to determine the amount of deacetylation of the substrate at a given timepoint within the linear range of the assay. This timepoint is the same as that used for test compounds and, within the linear range, the endpoint represents a change in velocity.
For the above assay, SIRT1 protein was expressed and purified as follows. The SirT1 gene was cloned into a T7-promoter containing vector and transformed into BL21(DE3). The protein was expressed by induction with 1 mM IPTG as an N-terminal His-tag fusion protein at 18° C. overnight and harvested at 30,000×g. Cells were lysed with lysozyme in lysis buffer (50 mM Tris-HCl, 2 mM Tris[2-carboxyethyl]phosphine (TCEP), 10 μM ZnCl2, 200 mM NaCl) and further treated with sonication for 10 min for complete lysis. The protein was purified over a Ni-NTA column (Amersham) and fractions containing pure protein were pooled, concentrated and run over a sizing column (Sephadex S200 26/60 global). The peak containing soluble protein was collected and run on an Ion-exchange column (MonoQ). Gradient elution (200 mM-500 mM NaCl) yielded pure protein. This protein was concentrated and dialyzed against dialysis buffer (20 mM Tris-HCl, 2 mM TCEP) overnight. The protein was aliquoted and frozen at −80° C. until further use.
Sirtuin modulating compounds that activated SIRT1 were identified using the assay described above and are shown below in Table 1. The EC1-5 values for the activating compounds are represented by A′ (EC1.5<250 nM), A (EC1.5≧250 nM and ≦1 uM), B (EC1.5>1 and ≦10 uM), or C (EC1.5>10 uM). The percent maximum fold activation is represented by A (Fold activation≧300%), B (Fold Activation≧150% and <300%), or C (Fold Activation<150%).

Structure (SMILES) | FOLD ACT. (percent maximum fold activation) | EC1.5
CN(C)CCN(C)c1cc(C(=O)Nc2ccccc2-c2nc3cccnc3s2)nc(-c2ccccc2)n1 [Compound 145] | A (Fold activation≧300%) | A′ (EC1.5<250 nM)
COCCNc1cc(C(=O)Nc2ccccc2-c2nc3cccnc3s2)nc(-c2ccccc2)c1 [Compound 131] | A (Fold activation≧300%) | A′ (EC1.5<250 nM)
CC1(C)OC[C@H](COc2cc(C(=O)Nc3ccccc3-c3nc4cccnc4s3)nc(-c3ccccc3)n2)O1 [Compound 97] | B (Fold Activation≧150% and <300%) | C (EC1.5>10 uM)
O=C(Nc1ccccc1-c1nc2cccnc2s1)c1cc(OCCN2CCOCC2)cc(-c2ccccc2)n1 [Compound 13] | A (Fold activation≧300%) | A (EC1.5≧250 nM and ≦1 uM)
O=C(Nc1ccccc1-c1nc2cccnc2s1)c1cc(O)cc(-c2ccccc2)n1 [Compound 34] | A (Fold activation≧300%) | A (EC1.5≧250 nM and ≦1 uM)
O=C(Nc1ccccc1-c1nc2cccnc2s1)c1cc(NCCNc2ccccc2)nc(-c2ccccc2)n1 [Compound 60] | C (Fold Activation<150%) | C (EC1.5>10 uM)
NCCCCNc1cc(C(=O)Nc2ccccc2-c2nc3cccnc3s2)nc(-c2ccccc2)n1 [Compound 87] | A (Fold activation≧300%) | A (EC1.5≧250 nM and ≦1 uM)
CCOC(=O)CCNc1cc(C(=O)Nc2ccccc2-c2nc3cccnc3s2)nc(-c2ccccc2)n1 [Compound 43] | B (Fold Activation≧150% and <300%) | A (EC1.5≧250 nM and ≦1 uM)
O=C(Nc1ccccc1-c1nc2cccnc2s1)c1cc(NC2CCN(Cc3ccccc3)CC2)nc(-c2ccccc2)n1 [Compound 113] | B (Fold Activation≧150% and <300%) | A (EC1.5≧250 nM and ≦1 uM)
CN(C)CCCOc1cc(C(=O)Nc2ccccc2-c2nc3cccnc3s2)nc(-c2ccccc2)n1 [Compound 153] | A (Fold activation≧300%) | A (EC1.5≧250 nM and ≦1 uM)
O=C(Nc1ccccc1-c1nc2cccnc2s1)c1cc(OC2CNC2)cc(-c2ccccc2)n1 [Compound 6] | A (Fold activation≧300%) | A (EC1.5≧250 nM and ≦1 uM)
O=C(Nc1ccccc1-c1nc2cccnc2s1)c1cc(NCCCn2ccnc2)cc(-c2ccccc2)n1 [Compound 141] | A (Fold activation≧300%) | A′ (EC1.5<250 nM)
CCN(CCN(C)C)c1cc(C(=O)Nc2ccccc2-c2nc3cccnc3s2)nc(-c2ccccc2)n1 [Compound 146] | A (Fold activation≧300%) | A′ (EC1.5<250 nM)

The remaining lines, values ahead:

FOLD ACT. (percent maximum fold activation) | EC1.5 | Structure (SMILES)
A (Fold activation≧300%) | A (EC1.5≧250 nM and ≦1 uM) | COC(=O)CNc1cc(C(=O)Nc2ccccc2-c2nc3cccnc3s2)nc(-c2ccccc2)n1 [Compound 17]
A (Fold activation≧300%) | A′ (EC1.5<250 nM) | CC(=O)N1CCC(Nc2cc(C(=O)Nc3ccccc3-c3nc4cccnc4s3)nc(-c3ccccc3)n2)CC1 [Compound 116]
C (Fold Activation<150%) | C (EC1.5>10 uM) | O=C(Nc1ccccc1-c1nc2cccnc2s1)c1cc(C#CCO)nc(-c2ccccc2)n1 [Compound 79]
A (Fold activation≧300%) | A′ (EC1.5<250 nM) | Cl.O=C(Nc1ccccc1-c1nc2cccnc2s1)c1cc(NCCN2CCOCC2)nc(-c2ccccc2)n1 [Compound 61]
A (Fold activation≧300%) | A′ (EC1.5<250 nM) | O=C(Nc1ccccc1-c1nc2cccnc2s1)c1cc(NCCO)nc(-c2ccccc2)n1 [Compound 39]
B (Fold Activation≧150% and <300%) | A′ (EC1.5<250 nM) | CC(C)N1CCN(c2cc(C(=O)Nc3ccccc3-c3nc4cccnc4s3)nc(-c3ccccc3)n2)CC1.Cl [Compound 65]
A (Fold activation≧300%) | A′ (EC1.5<250 nM) | O=C(Nc1ccccc1-c1nc2cccnc2s1)c1cc(NC2CCNCC2)nc(-c2ccccc2)n1 [Compound 49]
C (Fold Activation<150%) | C (EC1.5>10 uM) | CNc1cc(C(=O)Nc2ccccc2-c2nc3cccnc3s2)nc(-c2ccccc2)n1 [Compound 64]
A (Fold activation≧300%) | A′ (EC1.5<250 nM) | Cc1cccc(-c2nc(C(=O)Nc3ccccc3-c3nc4cccnc4s3)cc(N3CCNCC3)n2)c1 [Compound 139]
A (Fold activation≧300%) | A′ (EC1.5<250 nM) | O=C(Nc1ccccc1-c1nc2cccnc2s1)c1cc(NCCCO)nc(-c2ccccc2)n1 [Compound 40]
B (Fold Activation≧150% and <300%) | B (EC1.5>1 and ≦10 uM) | CN(C)c1cc(C(=O)Nc2ccccc2-c2nc3cccnc3s2)nc(-c2ccccc2)n1 [Compound 38]
B (Fold Activation≧150% and <300%) | A′ (EC1.5<250 nM) | CN1CCN(c2cc(C(=O)Nc3ccccc3-c3nc4cccnc4s3)nc(-c3ccccc3)n2)CC1=O [Compound 151]
A (Fold activation≧300%) | A′ (EC1.5<250 nM) | O=C(Nc1ccccc1-c1nc2cccnc2s1)c1cc(N2CCCNCC2)nc(-c2ccccc2)n1 [Compound 37]
A (Fold activation≧300%) | A′ (EC1.5<250 nM) | C[C@@H]1CN(c2cc(C(=O)Nc3ccccc3-c3nc4cccnc4s3)nc(-c3ccccc3)n2)C[C@H](C)N1 [Compound 35]
A (Fold activation≧300%) | A (EC1.5≧250 nM and ≦1 uM) | C[C@H](Nc1cc(C(=O)Nc2ccccc2-c2nc3cccnc3s2)nc(-c2ccccc2)n1)C(=O)O [Compound 75]
A (Fold activation≧300%) | A (EC1.5≧250 nM and ≦1 uM) | O=C(Nc1ccccc1-c1nc2cccnc2s1)c1cc(CN2CCOCC2)nc(-c2ccccc2)n1 [Compound 10]
A (Fold activation≧300%) | A′ (EC1.5<250 nM) | O=C(Nc1ccccc1-c1nc2cccnc2s1)c1cc(N2CCNCC2)nc(-c2ccccc2)n1 [Compound 1]
